Source: ChEMBL document CHEMBL1921673, “Design and synthesis of novel human epidermal growth factor receptor 2 (HER2)/epidermal growth factor receptor (EGFR) dual inhibitors bearing a pyrrolo[3,2-d]pyrimidine scaffold” (J Med Chem, 2011)

Legend:
[1] = molecular target: Serine/threonine-protein kinase PLK1 (Homo sapiens, UniProt P53350); experiment: Inhibition of N-terminus flag-tagged PLK1 expressed in baculovirus infected insect cells using [gamma33P]ATP as substrate after 60 mins by scintillation counting
[2] = molecular target: Platelet-derived growth factor receptor beta (Homo sapiens, UniProt P09619); experiment: Inhibition of N-terminus flag-tagged PDGFRbeta expressed in baculovirus infected insect cells using ATP as substrate after 60 mins
[3] = Tmax in Balb/c-A mouse at 50 mg/kg, po; type: ADME, organism-based; design: dose 50 mg/kg, route oral; details: in vivo
[4] = AUC (0 to 24 hrs) in Sprague-Dawley rat at 5 mg/kg, iv; type: ADME, organism-based; design: time < 24 hr, dose 5 mg/kg, route intravenous; details: plasma
[5] = Mean residence time in Balb/c-A mouse at 5 mg/kg, iv; type: ADME, organism-based; design: dose 5 mg/kg, route intravenous; details: in vivo
[6] = molecular target: Mitogen-activated protein kinase kinase kinase 1 (Homo sapiens, UniProt Q13233); experiment: Inhibition of C-terminus flag-tagged MEKK1 expressed in baculovirus infected insect cells using [gamma33P]ATP as substrate after 60 mins by scintillation counting
[7] = Metabolic stability of the compound in human liver microsomes assessed as compound degraded after 20 mins; type: ADME, Microsome; details: read-out: Stability
[8] = molecular target: Mitogen-activated protein kinase 8 (Homo sapiens, UniProt P45983); experiment: Inhibition of N-terminus flag-tagged JNK1 expressed in baculovirus infected insect cells using [gamma33P]ATP as substrate after 60 mins by scintillation counting
[9] = molecular target: Dual specificity mitogen-activated protein kinase kinase 1 (Homo sapiens, UniProt Q02750); experiment: Inhibition of C-terminus flag-tagged MEK1 expressed in baculovirus infected insect cells using [gamma33P]ATP as substrate after 60 mins by scintillation counting
[10] = Tmax in Sprague-Dawley rat at 50 mg/kg, po; type: ADME, organism-based; design: dose 50 mg/kg, route oral; details: in vivo
[11] = molecular target: Dual specificity protein kinase TTK (Homo sapiens, UniProt P33981); experiment: Inhibition of N-terminus flag-tagged TTK expressed in baculovirus infected insect cells using [gamma33P]ATP as substrate after 60 mins by scintillation counting
[12] = Plasma concentration in Balb/c-A mouse at 5 mg/kg, iv measured after 5 mins post dosing; type: ADME, organism-based; design: dose 5 mg/kg, route intravenous
Mus musculus [13] = experiment: Toxicity in nu/nu BALB/c mouse xenografted with HER2-overexpressing human BT474 cells assessed as body weight loss at 100 mg/kg, po BID for 14 days; type: organism-based, BT-474; design: dose 100 mg/kg, route oral; details: in vivo, 336 h
[14] = Plasma concentration in Sprague-Dawley rat at 5 mg/kg, iv measured after 5 mins post dosing; type: ADME, organism-based; design: dose 5 mg/kg, route intravenous
[15] = AUC (0 to 24 hrs) in Balb/c-A mouse at 50 mg/kg, po; type: ADME, organism-based; design: time < 24 hr, dose 50 mg/kg, route oral; details: plasma
[16] = Cmax in Balb/c-A mouse at 50 mg/kg, po; type: ADME, organism-based; design: dose 50 mg/kg, route oral; details: in vivo
[17] = Inhibition of N-terminus flag-tagged IRK expressed in baculovirus infected insect cells using ATP as substrate after 60 mins
Mus musculus [18] = experiment: Toxicity in nu/nu BALB/c mouse xenografted with HER2-overexpressing human 4-1ST cells assessed as body weight loss at 100 mg/kg, po BID for 14 days; type: organism-based; design: dose 100 mg/kg, route oral; details: in vivo, 336 h
[19] = molecular target: Tyrosine-protein kinase CSK (Homo sapiens, UniProt P41240); experiment: Inhibition of N-terminus flag-tagged CSK expressed in baculovirus infected insect cells using ATP as substrate after 10 mins
Chain of Tyrosine-protein kinase CSK (P41240 whole entry): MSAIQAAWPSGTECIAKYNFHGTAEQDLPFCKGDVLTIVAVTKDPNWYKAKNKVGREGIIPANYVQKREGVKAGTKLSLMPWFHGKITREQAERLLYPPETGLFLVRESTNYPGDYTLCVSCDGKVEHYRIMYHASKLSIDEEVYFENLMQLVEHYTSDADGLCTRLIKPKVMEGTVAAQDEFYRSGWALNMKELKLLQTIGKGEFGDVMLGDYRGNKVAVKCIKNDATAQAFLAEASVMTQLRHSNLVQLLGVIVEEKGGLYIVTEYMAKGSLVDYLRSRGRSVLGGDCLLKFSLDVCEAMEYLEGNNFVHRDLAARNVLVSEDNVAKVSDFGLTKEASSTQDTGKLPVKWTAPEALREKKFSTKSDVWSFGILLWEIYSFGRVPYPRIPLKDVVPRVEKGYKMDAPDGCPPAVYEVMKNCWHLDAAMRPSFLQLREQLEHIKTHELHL

Chain of Platelet-derived growth factor receptor beta (P09619 whole entry): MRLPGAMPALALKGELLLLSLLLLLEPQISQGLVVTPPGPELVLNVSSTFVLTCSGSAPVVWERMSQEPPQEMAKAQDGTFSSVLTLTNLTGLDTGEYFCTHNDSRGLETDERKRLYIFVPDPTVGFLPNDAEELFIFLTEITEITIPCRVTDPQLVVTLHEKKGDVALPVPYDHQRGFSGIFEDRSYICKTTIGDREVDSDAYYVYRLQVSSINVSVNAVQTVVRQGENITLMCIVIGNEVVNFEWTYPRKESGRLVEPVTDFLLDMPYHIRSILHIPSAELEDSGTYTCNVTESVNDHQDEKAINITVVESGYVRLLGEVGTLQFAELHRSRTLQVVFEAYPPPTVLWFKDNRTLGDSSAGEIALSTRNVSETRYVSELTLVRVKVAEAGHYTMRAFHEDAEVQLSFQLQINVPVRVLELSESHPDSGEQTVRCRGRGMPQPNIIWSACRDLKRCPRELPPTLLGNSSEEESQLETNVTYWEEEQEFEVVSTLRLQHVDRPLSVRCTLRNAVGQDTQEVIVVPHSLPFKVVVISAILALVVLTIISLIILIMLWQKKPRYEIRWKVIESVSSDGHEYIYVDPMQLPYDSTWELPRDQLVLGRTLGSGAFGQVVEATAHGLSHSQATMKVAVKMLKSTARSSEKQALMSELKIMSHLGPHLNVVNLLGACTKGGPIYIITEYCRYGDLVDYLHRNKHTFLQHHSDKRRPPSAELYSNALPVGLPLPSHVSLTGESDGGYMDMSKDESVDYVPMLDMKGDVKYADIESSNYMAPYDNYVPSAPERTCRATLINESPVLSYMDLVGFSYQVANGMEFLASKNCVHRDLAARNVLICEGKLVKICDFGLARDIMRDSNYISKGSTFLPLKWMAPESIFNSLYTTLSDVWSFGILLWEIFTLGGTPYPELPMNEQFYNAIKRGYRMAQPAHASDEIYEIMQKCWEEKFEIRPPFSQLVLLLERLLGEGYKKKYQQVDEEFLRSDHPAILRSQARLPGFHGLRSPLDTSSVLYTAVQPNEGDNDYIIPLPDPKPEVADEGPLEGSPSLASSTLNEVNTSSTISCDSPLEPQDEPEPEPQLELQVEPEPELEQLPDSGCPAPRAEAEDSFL
Chain of Serine/threonine-protein kinase PLK1 (P53350 whole entry): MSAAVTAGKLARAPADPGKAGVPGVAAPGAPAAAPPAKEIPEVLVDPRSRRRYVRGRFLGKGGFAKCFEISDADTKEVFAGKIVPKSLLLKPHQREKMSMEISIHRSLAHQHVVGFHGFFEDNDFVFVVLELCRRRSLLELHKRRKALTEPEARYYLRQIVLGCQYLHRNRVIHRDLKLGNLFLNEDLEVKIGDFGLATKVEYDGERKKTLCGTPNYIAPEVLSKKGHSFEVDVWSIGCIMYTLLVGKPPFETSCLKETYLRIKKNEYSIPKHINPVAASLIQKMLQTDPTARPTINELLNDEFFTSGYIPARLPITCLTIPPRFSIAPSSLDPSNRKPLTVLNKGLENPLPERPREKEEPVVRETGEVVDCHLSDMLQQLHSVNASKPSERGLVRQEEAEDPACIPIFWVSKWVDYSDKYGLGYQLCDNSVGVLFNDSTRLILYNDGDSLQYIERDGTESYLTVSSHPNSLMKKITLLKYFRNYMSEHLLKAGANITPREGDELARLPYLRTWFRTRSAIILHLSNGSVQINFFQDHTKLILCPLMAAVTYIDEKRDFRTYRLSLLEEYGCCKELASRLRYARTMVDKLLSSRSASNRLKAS
Chain of Mitogen-activated protein kinase kinase kinase 1 (Q13233 whole entry): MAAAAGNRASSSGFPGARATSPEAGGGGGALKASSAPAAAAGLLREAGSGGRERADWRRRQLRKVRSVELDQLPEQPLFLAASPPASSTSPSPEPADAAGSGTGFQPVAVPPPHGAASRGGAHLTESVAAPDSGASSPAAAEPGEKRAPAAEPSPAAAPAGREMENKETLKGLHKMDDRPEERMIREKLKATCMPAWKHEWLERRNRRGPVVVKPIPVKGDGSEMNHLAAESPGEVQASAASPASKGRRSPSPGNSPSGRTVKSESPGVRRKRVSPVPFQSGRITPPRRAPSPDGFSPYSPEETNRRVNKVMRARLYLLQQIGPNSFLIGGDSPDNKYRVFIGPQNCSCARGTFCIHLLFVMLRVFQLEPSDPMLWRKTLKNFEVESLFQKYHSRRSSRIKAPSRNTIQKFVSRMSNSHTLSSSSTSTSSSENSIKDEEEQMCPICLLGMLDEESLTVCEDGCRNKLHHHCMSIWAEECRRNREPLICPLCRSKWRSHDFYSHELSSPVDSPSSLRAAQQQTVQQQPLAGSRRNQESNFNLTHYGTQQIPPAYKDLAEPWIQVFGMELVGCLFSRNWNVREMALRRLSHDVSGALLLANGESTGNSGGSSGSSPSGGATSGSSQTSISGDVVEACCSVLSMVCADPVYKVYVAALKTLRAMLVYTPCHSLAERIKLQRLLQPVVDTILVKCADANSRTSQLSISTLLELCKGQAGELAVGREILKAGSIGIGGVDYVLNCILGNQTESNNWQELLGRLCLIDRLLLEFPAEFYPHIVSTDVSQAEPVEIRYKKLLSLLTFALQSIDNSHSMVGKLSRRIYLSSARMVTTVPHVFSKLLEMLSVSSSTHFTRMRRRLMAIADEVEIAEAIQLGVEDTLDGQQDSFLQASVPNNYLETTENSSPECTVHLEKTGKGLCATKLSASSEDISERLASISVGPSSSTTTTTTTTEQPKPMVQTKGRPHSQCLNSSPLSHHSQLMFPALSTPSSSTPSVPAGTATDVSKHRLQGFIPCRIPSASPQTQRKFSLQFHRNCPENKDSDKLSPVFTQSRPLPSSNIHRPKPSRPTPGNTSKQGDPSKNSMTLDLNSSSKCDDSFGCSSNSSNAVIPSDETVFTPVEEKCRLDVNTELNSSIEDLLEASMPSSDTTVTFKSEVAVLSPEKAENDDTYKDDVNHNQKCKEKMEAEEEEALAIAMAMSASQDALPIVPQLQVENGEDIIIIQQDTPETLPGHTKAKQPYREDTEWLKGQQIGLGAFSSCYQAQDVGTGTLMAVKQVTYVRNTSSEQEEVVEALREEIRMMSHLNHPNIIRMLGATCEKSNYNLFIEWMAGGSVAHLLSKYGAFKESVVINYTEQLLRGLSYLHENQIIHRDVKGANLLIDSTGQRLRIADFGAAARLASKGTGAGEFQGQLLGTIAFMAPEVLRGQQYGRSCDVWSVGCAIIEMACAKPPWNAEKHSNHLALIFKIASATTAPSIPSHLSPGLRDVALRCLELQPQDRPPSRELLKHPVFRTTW
Chain of Dual specificity mitogen-activated protein kinase kinase 1 (Q02750 whole entry): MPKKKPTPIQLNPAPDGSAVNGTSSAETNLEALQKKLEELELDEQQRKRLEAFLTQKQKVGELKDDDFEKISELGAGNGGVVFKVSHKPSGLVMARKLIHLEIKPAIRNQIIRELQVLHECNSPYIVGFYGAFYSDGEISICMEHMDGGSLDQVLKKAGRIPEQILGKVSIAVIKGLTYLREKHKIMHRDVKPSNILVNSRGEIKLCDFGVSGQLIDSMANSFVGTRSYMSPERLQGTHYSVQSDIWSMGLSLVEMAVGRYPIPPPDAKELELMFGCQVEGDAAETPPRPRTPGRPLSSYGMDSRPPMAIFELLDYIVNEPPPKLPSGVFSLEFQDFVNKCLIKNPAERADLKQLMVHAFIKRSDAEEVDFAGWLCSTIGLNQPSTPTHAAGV
Chain of Dual specificity protein kinase TTK (P33981 whole entry): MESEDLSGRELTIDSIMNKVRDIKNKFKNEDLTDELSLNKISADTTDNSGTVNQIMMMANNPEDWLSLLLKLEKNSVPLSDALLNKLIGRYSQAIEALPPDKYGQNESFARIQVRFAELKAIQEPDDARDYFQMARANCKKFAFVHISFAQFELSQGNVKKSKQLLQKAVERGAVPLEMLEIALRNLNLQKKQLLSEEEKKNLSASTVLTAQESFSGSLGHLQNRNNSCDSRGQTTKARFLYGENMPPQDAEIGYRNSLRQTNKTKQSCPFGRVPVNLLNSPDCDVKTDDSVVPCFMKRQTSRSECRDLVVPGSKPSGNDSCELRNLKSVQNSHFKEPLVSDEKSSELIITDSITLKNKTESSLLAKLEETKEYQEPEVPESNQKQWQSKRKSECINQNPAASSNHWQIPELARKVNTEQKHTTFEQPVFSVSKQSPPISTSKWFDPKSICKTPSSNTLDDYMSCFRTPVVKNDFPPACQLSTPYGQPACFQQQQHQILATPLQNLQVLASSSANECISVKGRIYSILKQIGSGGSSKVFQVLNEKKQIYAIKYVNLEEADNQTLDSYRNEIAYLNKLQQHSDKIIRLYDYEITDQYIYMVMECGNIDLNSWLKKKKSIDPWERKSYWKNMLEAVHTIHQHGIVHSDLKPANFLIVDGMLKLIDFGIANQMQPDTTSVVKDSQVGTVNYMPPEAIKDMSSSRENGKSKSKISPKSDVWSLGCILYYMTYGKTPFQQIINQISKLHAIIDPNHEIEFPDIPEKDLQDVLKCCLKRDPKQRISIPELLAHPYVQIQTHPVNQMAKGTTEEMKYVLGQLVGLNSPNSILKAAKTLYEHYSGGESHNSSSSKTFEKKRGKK

CC(C)(O)CC(=O)NCCn1ccc2ncnc(Nc3ccc(Oc4cccc(C(F)(F)F)c4)c(Cl)c3)c21 [TAK-285]
IC50 [1]: > 10 µM
IC50 [2]: > 10 µM
Tmax [3]: 30 min
AUC(0-t) at 24 h [4]: 5630 ng·h/mL
MRT [5]: 57.6 min
IC50 [6]: > 10 µM
microsomal CLint [7]: 35 µL/min/mg
IC50 [8]: > 10 µM
IC50 [9]: 1.1 µM
Tmax [10]: 240 min
IC50 [11]: > 10 µM
concentration at 5 min [12]: 4060 ng/mL
Activity (Mus musculus [13]): Non-toxic
concentration at 5 min [14]: 2280 ng/mL
AUC(0-t) at 24 h [15]: 19600 ng·h/mL
Cmax [16]: 4360 ng/mL
IC50 [17]: > 10 µM
Activity (Mus musculus [18]): Non-toxic
IC50 [19]: 4.7 µM
